According to ChEMBL document CHEMBL5321275, “Discovery, Optimization, and Evaluation of Novel N-(Benzimidazol-5-yl)-1,3,4-thiadiazol-2-amine Analogues as Potent STAT3 Inhibitors for Cancer Treatment” (J Med Chem, 2023):
Active and inactive are the calls of the source. No cut-off for these calls is given here.

Experiments:
[1] = Toxicity in Balb/c mouse assessed as drug tolerance at 50 mg/kg, ip administered once daily for 16 days; format: organism-based; settings: in vivo, 384 h, time 16 day
[2] = MRT (0 to infinity) in ICR mouse at 50 mg/kg, po measured upto 96 hrs by HPLC-MS/MS analysis; format: ADME, organism-based; settings: in vivo
DU-145 [3] = assay: Induction of apoptosis in human DU-145 cells assessed as late apoptotic cells at 1 uM measured after 48 hrs by annexin V-FITC and PI staining based flow cytometry analysis (reference value: 2.0%); format: functional
[4] = molecular target: T1, Signal transducer and activator of transcription 3 (Homo sapiens, UniProt P40763); assay: Inhibition of STAT3 nuclear translocation in human DU-145 cells at 5 uM measured after 24 hrs by immunofluorescence assay; format: cell-based
T1 sequence (P40763 whole entry): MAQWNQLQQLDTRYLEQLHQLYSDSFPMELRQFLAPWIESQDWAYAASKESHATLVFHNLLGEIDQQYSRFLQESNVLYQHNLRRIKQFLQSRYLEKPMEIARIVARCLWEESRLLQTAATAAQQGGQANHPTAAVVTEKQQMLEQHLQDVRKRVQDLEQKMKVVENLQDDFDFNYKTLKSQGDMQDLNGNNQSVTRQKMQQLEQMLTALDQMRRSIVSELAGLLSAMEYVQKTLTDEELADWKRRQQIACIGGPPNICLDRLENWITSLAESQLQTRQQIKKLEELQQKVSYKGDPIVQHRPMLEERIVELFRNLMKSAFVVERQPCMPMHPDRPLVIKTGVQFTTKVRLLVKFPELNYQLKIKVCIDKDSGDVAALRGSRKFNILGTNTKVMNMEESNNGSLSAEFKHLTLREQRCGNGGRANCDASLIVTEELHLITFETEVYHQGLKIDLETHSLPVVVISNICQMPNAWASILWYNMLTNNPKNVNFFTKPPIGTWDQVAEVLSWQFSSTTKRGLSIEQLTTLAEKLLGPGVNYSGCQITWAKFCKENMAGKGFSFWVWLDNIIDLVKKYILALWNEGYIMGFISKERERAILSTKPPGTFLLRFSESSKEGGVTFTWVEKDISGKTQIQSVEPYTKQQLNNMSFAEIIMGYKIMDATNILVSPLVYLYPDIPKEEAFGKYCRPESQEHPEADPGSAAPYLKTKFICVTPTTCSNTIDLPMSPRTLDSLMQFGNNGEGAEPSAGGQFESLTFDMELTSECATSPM

MDA-MB-231 [5] = assay: Induction of apoptosis in human MDA-MB-231 cells assessed as early apoptotic cells at 1 uM measured after 48 hrs by annexin V-FITC and PI staining based flow cytometry analysis (reference value: 6.7%); format: functional
[6] = AUC (0 to infinity) in ICR mouse at 5 mg/kg, iv measured upto 96 hrs by HPLC-MS/MS analysis; format: ADME, organism-based; parameters: dose 5 mg/kg, time < 96 hrs, route iv; settings: in vivo
[7] = Volume of distribution at steady state in ICR mouse at 50 mg/kg, po measured upto 96 hrs by HPLC-MS/MS analysis; format: ADME, organism-based; settings: in vivo
MDA-MB-231 [8] = assay: Antiproliferative activity against human MDA-MB-231 cells assessed as inhibition of cell growth at 10 uM measured after 96 hrs by MTT assay relative to control; format: functional
HCT-116 = assay: Antiproliferative activity against human HCT-116 cells assessed as inhibition of cell growth measured after 96 hrs by MTT assay; format: functional, cell-based; settings: HCT-116, 96 h
[9] = Toxicity in Balb/c mouse assessed as effect on spleen at 50 mg/kg by hematoxylin and eosin staining based histopathological analysis; format: organism-based; settings: in vivo
[10] = Cmax in ICR mouse at 50 mg/kg, po measured upto 96 hrs by HPLC-MS/MS analysis; format: ADME, organism-based; parameters: time < 96 hrs, dose 50 mg/kg, route po; settings: in vivo
DU-145 [11] = assay: Antiproliferative activity against human DU-145 cells assessed as inhibition of cell growth at 10 uM measured after 96 hrs by MTT assay relative to control; format: functional
DU-145 [12] = assay: Induction of apoptosis in human DU-145 cells assessed as early apoptotic cells at 5 uM measured after 48 hrs by annexin V-FITC and PI staining based flow cytometry analysis (reference value: 2.5%); format: functional
DU-145 [13] = assay: Induction of apoptosis in human DU-145 cells assessed as late apoptotic cells at 5 uM measured after 48 hrs by annexin V-FITC and PI staining based flow cytometry analysis (reference value: 2.0%); format: functional
[14] = Half life in ICR mouse at 50 mg/kg, po measured upto 96 hrs by HPLC-MS/MS analysis; format: ADME, organism-based; settings: in vivo
[15] = Toxicity in Balb/c mouse assessed as effect on heart at 50 mg/kg by hematoxylin and eosin staining based histopathological analysis; format: organism-based; settings: in vivo
[16] = molecular target: T1, Signal transducer and activator of transcription 3; assay: Binding affinity to STAT3 (unknown origin) assessed as conformational change in STAT3 protein measured after 1 hr by circular dichroism method
[17] = MRT (0 to t) in ICR mouse at 5 mg/kg, iv measured upto 96 hrs by HPLC-MS/MS analysis; format: ADME, organism-based; settings: in vivo
[18] = Tmax in ICR mouse at 5 mg/kg, iv measured upto 96 hrs by HPLC-MS/MS analysis; format: ADME, organism-based; settings: in vivo
[19] = MRT (0 to infinity) in ICR mouse at 5 mg/kg, iv measured upto 96 hrs by HPLC-MS/MS analysis; format: ADME, organism-based; settings: in vivo
[20] = Volume of distribution at steady state in ICR mouse at 5 mg/kg, iv measured upto 96 hrs by HPLC-MS/MS analysis; format: ADME, organism-based; settings: in vivo, read-out: Vdss
[21] = molecular target: Tyrosine-protein kinase JAK2 (Homo sapiens) (UniProt O60674); assay: Inhibition of JAK2 phosphorylation in human DU-145 cells at 10 uM measured after 24 hrs by Western blot analysis; format: cell-based
Tyrosine-protein kinase JAK2 (Homo sapiens), sequence (O60674 whole entry): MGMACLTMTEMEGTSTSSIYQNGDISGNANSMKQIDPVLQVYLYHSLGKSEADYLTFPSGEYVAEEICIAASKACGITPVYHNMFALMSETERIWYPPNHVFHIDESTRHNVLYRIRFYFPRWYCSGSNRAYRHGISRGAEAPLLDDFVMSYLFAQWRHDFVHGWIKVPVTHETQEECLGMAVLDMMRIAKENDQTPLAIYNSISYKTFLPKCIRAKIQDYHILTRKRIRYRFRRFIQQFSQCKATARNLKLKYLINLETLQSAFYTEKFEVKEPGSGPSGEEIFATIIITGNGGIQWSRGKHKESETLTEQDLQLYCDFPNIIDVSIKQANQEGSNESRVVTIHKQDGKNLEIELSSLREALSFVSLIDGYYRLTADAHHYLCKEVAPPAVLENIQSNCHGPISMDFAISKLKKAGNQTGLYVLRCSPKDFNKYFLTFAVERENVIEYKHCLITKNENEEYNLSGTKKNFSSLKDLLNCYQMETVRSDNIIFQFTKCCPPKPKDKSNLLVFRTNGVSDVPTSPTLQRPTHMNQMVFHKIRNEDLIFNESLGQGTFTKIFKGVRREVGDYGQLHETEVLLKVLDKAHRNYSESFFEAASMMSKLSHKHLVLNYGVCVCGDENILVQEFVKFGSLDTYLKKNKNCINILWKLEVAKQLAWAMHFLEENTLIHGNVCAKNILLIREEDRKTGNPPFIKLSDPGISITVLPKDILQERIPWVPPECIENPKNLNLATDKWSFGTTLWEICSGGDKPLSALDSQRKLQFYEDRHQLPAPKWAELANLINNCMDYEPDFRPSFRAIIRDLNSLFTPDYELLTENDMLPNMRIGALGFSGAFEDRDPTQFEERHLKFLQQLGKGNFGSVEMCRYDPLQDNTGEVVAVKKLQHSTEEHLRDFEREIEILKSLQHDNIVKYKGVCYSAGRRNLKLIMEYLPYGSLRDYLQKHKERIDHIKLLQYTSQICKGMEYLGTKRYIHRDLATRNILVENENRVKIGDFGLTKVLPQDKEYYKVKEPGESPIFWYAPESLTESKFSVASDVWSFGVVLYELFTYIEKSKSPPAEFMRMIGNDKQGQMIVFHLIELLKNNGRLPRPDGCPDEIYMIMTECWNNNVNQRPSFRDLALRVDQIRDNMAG

[22] = Metabolic stability in mouse liver microsomes assessed as half life in presence of NADPH/UDPGA; format: ADME, Microsome
MDA-MB-231 [23] = assay: Induction of apoptosis in human MDA-MB-231 cells measured after 48 hrs by annexin V-FITC and PI staining based flow cytometry analysis; format: functional, cell-based; settings: dose <= 10.0 µM

With CN1CCN(c2cc3c(cc2Nc2nnc(-c4ccc(C(F)(F)F)cc4)s2)nc(-c2ccc(F)cc2)n3C2CC2)CC1 the Activity [1] was “Non-Toxic”, the MRT inf [2] was 17.3 h and the Activity (DU-145 [3]) was 2.4%. For the same compound, the inhibition [4] was “Active”, the Activity (MDA-MB-231 [5]) was 5.9% and the AUC(0-inf) [6] was 3450 ng·h/mL. For the same compound, the Vdss [7] was 40.17172 L/kg, the inhibition at 10 µM (MDA-MB-231 [8]) was 90.1% and the IC50 (HCT-116) was 2190 nM. The Activity [9] was “Non-Toxic”, the Cmax [10] was 910 ng/mL and the inhibition at 10 µM (DU-145 [11]) was 92.7%. It also gave an Activity (DU-145 [12]) of 6.9%, an Activity (DU-145 [13]) of 13.9% and a half-life [14] of 9.94 h. For the same compound, the Activity [15] was “Non-Toxic”, the Activity [16] was “Active” and the MRT last at 96 h [17] was 14.9 h. It also gave a Tmax [18] of 3 min, an MRT inf [19] of 15.3 h and a Vd [20] of 19 L/kg. The inhibition [21] was “inactive”, the half-life [22] was 6.28 h and the Activity (MDA-MB-231 [23]) was “Dose-Dependent Effect”.
